Usually MIC stands for the lowest concentration found to suppress growth.

Structures are written as SMILES. Converted amounts (≈) assume the structure as drawn.

For experiment [1], the system named is S. aureus CART817. Kind of experiment: Antibacterial MIC, broth microdilution with resazurin. As to conditions: Staphylococcus aureus; S. aureus CART817, Gram-positive; read-out: MIC. Type of experiment: cell-based. As for the experimental part:
The minimum inhibitory concentrations (MICs) were determined using a two-fold serial dilution method with MHB following the recommendations of the Clinical and Laboratory Standards Institute (CLSI [2012]; Elshikh et al. [2016]). In brief, serial two-fold dilutions of the samples in DMSO were mixed with MHB in a 96-well microplate. Then, 50 µL of bacteria suspension was added to each well, resulting in a final concentration of 1 × 10^4 colony-forming units/well. The plates were incubated at 35–37 °C for 18–24 hr. After incubation, 10 µL of 0.18% resazurin (Cat. No. R7017, Sigma-Aldrich, USA) was added to each well (Elshikh et al. [2016]). The MIC was assessed within 2–3 hr after the addition of resazurin. All antimicrobial assays were performed in triplicate, using vancomycin (Cat. No. SBR00001, Sigma-Aldrich, USA) and gentamicin (Cat. No. G1397, Sigma-Aldrich, USA) as standard controls.
(In general: Dilution methods test growth across graded concentrations, often in twofold steps.)

Experiment [2] is described as follows: Ferric-reducing antioxidant power (FRAP) assay. On the procedure:
The FRAP assay was used to evaluate antioxidant activity based on the ability of the sample to reduce Fe^3+-TPTZ (2,4,6-tris(2-pyridyl)-S-triazine) to Fe^2+-TPTZ (Benzie and Strain [1996]). This reduction results in a color change from colorless to blue. The absorbance was measured at 593 nm using a Microplate Reader (BioTek ELx800 Instruments Inc. Winooski, Vermont, USA) with the Gen 5 software for FRAP value calculations. A ferrous sulfate heptahydrate (FeSO4 · 7H2O) (Cat. No. 215422, Sigma-Aldrich, USA) standard curve, ranging from 1000 µM to 50 µM, was prepared for the assay. The FRAP reagent consists of 300 mM sodium acetate buffer (pH 3.6) (Cat. No. 90358, Sigma-Aldrich, USA), 10 mM TPTZ solution (Cat. No. T1253, Sigma-Aldrich, USA), and 20 mM ferric (III) chloride hexahydrate (FeCl3 · 6H2O) (Cat. No. 236489, Sigma-Aldrich, USA) in a 10:1:1 ratio, respectively, and heated to 37 °C for ten minutes before use. A blank was measured at 593 nm with 150 µL FRAP reagent added to each well of a 96-well microtiter plate. Samples (20 µL of each sample) (1, 0.5, 0.25 mg/mL) and ascorbic acid (Sigma-Aldrich, Cat. No. A4403) positive control (1 mg/mL) were added in triplicates. Reducing capacity was expressed by FRAP values in an µM FeSO4/µg sample unit.

Take `Nc1ccn([C@H]2C[C@H](O)[C@@H](CO)O2)c(=O)n1` [Compound 1, deoxycytidine]: the MIC in experiment [1] is 128 µg/mL (≈ 563 µM). The “FRAP” value in experiment [2] (µM FeSO4/µg sample) was 0.41 ± 0.03 µM/µg.

With `CC(C)CCC[C@@H](C)[C@H]1CC[C@H]2[C@@H]3CC=C4C[C@@H](O)CC[C@]4(C)[C@H]3CC[C@]12C` [Compound 9, cholesterol], the MIC in experiment [1] was 128 µg/mL (≈ 331 µM).

In the case of `CC(C)CCC[C@@H](C)[C@H]1CCC2[C@@]34C=C[C@]5(C[C@@H](O)CC[C@]5(C)C3CC[C@@]21C)OO4` (stereo partly shown) [Compound 10, 7-dehydrochoresterol peroxide], the MIC in experiment [1] is 128 µg/mL (≈ 307 µM). In addition, the “FRAP” value was 204.07 µM in experiment [2] (FeSO4 standard curve) and 2.55 ± 0.02 µM/µg in experiment [2] (µM FeSO4/µg sample).

In the case of `CC(C)CCC[C@@H](C)[C@H]1CCC2[C@]1(C)CC=C1[C@]23C=C[C@]2(C[C@@H](O)CC[C@]12C)OO3` (stereo partly drawn) [Compound 11, (3β-5α-8α)5,8-epidioxycholesta-6,9(1)-diene-3-ol], the MIC in experiment [1] was determined as 128 µg/mL (≈ 309 µM).

These data come from paper PMC12203697, “Bioactive constituents from the edible seaweed Halymenia hawaiiana (Rhodophyta)” (Pharmaceutical Biology, 2025).
